From patent publication US20050209157A1, “Short bioactive peptides and methods for their use” (priority 2001, published 2005)
Read-outs that look alike come from different tables or passages of the source. No end group written: not given here.

Experiments:
fungal = test: Presently preferred antifungal peptides, selected from the MIC/MBC data; format: cell-based; settings: X = preferred
Source text: The peptide's “length” is the number of amino acid residues in the sequence.

[1] = tested on: Escherichia coli ATCC 25922; test: Antimicrobial assay I, modified protocol (tryptic soy broth), MBC; settings: minimum bactericidal concentration, Table 4
Protocol: (§3) The preparation of all media, stock solutions, and dilutions took place in a laminar flow hood to prevent contamination. Bacterial cells were freshly grown on antibiotic medium 2 agar slants (pH 7.0 at 25° C.). Bacteria were suspended and diluted in antibiotic medium 3 to about 10^4 cfu/ml and used as the inoculum. Sample solutions (100 μl/well) were added to plates according to the plate layout. Inoculum (100 μl/well) was added to achieve a final concentration of 5×10^3 cfu/ml. Negative controls received 100 μl saline and 100 μl growth medium. Positive controls received 100 μl saline and 100 μl inoculum. Bacterial plates were incubated at 37° C. for 24 hours.
(§4) However, the data for Table 4 were obtained with a modified protocol wherein the medium was tryptic soy broth, inocolum strength was approximately 10^4 CFU per ml, and values determined were minimum bactericidal concentrations (MBC) or minimum fungicidal concentrations (MFC).
(§5) MBC or MFC values are in μg/mL. E. coli is Escherichia coli ATCC accession number 25922; P. aerug is Pseudomonas aeruginosa ATCC accession number 27853, S. aur. is Stapholococcus aureus ATCC accession number 25923; Candida is Candida albicans ATCC accession number 10231.

[2] = tested on: Pseudomonas aeruginosa ATCC 27853; test: as above; settings: minimum bactericidal concentration, Table 4
[3] = tested on: Stapholococcus aureus ATCC 25923; test: as above; settings: minimum bactericidal concentration, Table 4
Protocol: as §3, §4, §5

[4] = tested on: Candida albicans ATCC 10231; test: Antimicrobial assay I, modified protocol (tryptic soy broth), MFC; settings: minimum fungicidal concentration, Table 4
[5] = tested on: Pseudomonas aeruginosa ATCC 9027; test: Antimicrobial assay I, MIC by OD measurement; format: cell-based; settings: 37° C. for 24 hours, absorbance 620 nm
[6] = tested on: Staphylococcus aureus ATCC 6538; test: Antimicrobial assay I, MIC by OD measurement; format: cell-based; settings: 37° C. for 24 hours, absorbance 620 nm
S. aureus (MRSA) = format: cell-based, Staphylococcus aureus; settings: mean of three; 16 to 20 hours at 35° C.
S. epidermidis C621 = format: cell-based, Staphylococcus epidermidis; settings: mean of three; 16 to 20 hours at 35° C.
S. pyogenes M76 = test: Antimicrobial assays II, NCCLS broth microdilution MIC; format: cell-based, Streptococcus pyogenes; settings: mean of three; 16 to 20 hours at 35° C.
S. pyogenes ATCC19615 = test: as above; format: cell-based, Streptococcus pyogenes; settings: mean of three, in µg/mL
S. pneumoniae C718 = test: as above; format: cell-based, Streptococcus pneumoniae; settings: mean of three
S. pneumoniae C719 = test: as above; format: cell-based, Streptococcus pneumoniae; settings: mean of three, in µg/mL
P. acne ATCC 6919 = test: as above; format: cell-based, Propionibacterium acnes; settings: mean of three, in µg/mL
E. coli UB1005 = format: cell-based, Escherichia coli; settings: mean of three; 16 to 20 hours at 35° C.; in µg/mL
S. typhimurium 14028S = format: cell-based, Salmonella typhimurium; settings: mean of three; 16 to 20 hours at 35° C.; in µg/mL
P. aeruginosa H374 [7] = format: cell-based, Pseudomonas aeruginosa; settings: mean of three; 16 to 20 hours at 35° C.
BMKC = test: Anti-cancer assay, MTT, LD50; format: cell-based; settings: BMKC cloned melanoma line, 24 hours with peptide
Source text: (§1) Numbers are LD50 values (μg/mL).

H1299 = test: Anti-cancer assay, MTT, LD50; format: cell-based; settings: 24 hours with peptide, lung large cell carcinoma
Source text: as §1

HeLaS3 = test: Anti-cancer assay, MTT, LD50; format: cell-based; settings: 24 hours with peptide, cervical carcinoma
Source text: as §1

MCF7 = test: Anti-cancer assay, MTT, LD50; format: cell-based; settings: MCF7 breast adenocarcinoma line, MTT, 24 hours with peptide
Source text: as §1

PC3 = test: Anti-cancer assay, MTT, LD50; format: cell-based; settings: 24 hours with peptide, prostate adenocarcinoma
Source text: as §1

SW480 = test: Anti-cancer assay, MTT, LD50; format: cell-based; settings: SW480 colon adenocarcinoma line, 24 hours with peptide
Source text: as §1

in vitro [8] = format: cell-based, human; settings: human, human red blood cells
P. aeruginosa H374 [9] = format: cell-based, Pseudomonas aeruginosa; settings: for MIC Cm-comb.: MIC of chloramphenicol with peptide at ¼ MIC; for MIC Nal-comb.: MIC of nalidixic acid with peptide at ¼ MIC; for FIC Index: 0.5 or less = synergy
Outline: (§2)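 Synergy against efflux-mutant strains: two-fold dilutions of nalidixic acid or chloramphenicol tested with peptide held at ¼ of its MIC.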

P. aeruginosa H774 = format: cell-based, Pseudomonas aeruginosa; settings: P. aeruginosa H744; nalidixic acid + peptide at ¼ MIC; 0.5 or less = synergy
Outline: as §2

P. aeruginosa = format: cell-based, Pseudomonas aeruginosa; settings: P. aeruginosa H744; MIC of nalidixic acid with peptide at ¼ MIC
Outline: as §2

WI38 = settings: MTT, 24 hours with peptide; for WI38 LD50: normal fibroblast line
in vitro [10] = settings: human, WI38 normal lung fibroblast cells
[11] = tested on: yeast (Saccharomyces cerevisiae); test: Antimicrobial assay I, yeast assay in RPMI 1640; format: cell-based; settings: RPMI 1640 media
[12] = tested on: human red blood cells (RBC); test: in vitro; format: cell-based; settings: hemolytic assay, concentration at 50% hemolysis, 1 hour at 37° C.
[13] = chloramphenicol + peptide at ¼ MIC
[14] = nalidixic acid + peptide at ¼ MIC, FIC=0.25+MIC comb/MIC alone

For FAKLLAKALKKFL-NH2 [compound 118], the “Anti-fungal (preferred peptide)” value (fungal) was “X (Preferred antifungal peptides can be selected as having MIC or MBC values of less than or equal to about 25 μg/ml)”, the “MBC E. coli A.25922” value [1] was 8 µg/mL and the “MBC P. aerug A.27853” value [2] was 25 µg/mL.

With FALALKLAKKAL-NH2 [compound 167] the “Anti-fungal (preferred peptide)” value (fungal) was “X (Preferred antifungal peptides can be selected as having MIC or MBC values of less than or equal to about 25 μg/ml)”, the “MBC E. coli A.25922” value [1] was 25 µg/mL and the “MBC P. aerug A.27853” value [2] was >250 µg/mL. The “MBC S. aur A.25923” value [3] was 10 µg/mL and the “MFC Candida A.10231” value [4] was 25 µg/mL.

With FALALKAKKL-NH2 [compound 182] the “Anti-fungal (preferred peptide)” value (fungal) was “X (Preferred antifungal peptides can be selected as having MIC or MBC values of less than or equal to about 25 μg/ml)”.

In the case of FAKKLAKKLKKLAKLALAK-NH2 [P41], the “paerug9027 (MIC)” value [5] is reported as 10 µg/mL, the “staph6538 (MIC)” value [6] is reported as 10 µg/mL and the S. aureus (MRSA) MIC (S. aureus (MRSA)) is reported as 64 µg/mL. The S. epidermidis C621 MIC (S. epidermidis C621) was 4 µg/mL, the S. pyogenes M76 MIC (S. pyogenes M76) was 8 µg/mL and the “S. pyogenes MIC” value (S. pyogenes ATCC19615) was 8. The S. pneumoniae MIC (S. pneumoniae C718) was 64 µg/mL, the “S. pneumoniae MIC” value (S. pneumoniae C719) was 32 and the “P. acne MIC” value (P. acne ATCC 6919) was 4. For the same molecule, the “E. coli UB1005 MIC” value (E. coli UB1005) was 2, the “S. typhimurium 14028S MIC” value (S. typhimurium 14028S) was 4 and the P. aeruginosa H374 MIC (P. aeruginosa H374 [7]) was 4 µg/mL. For the same molecule, the “LD50 BMKC” value (BMKC) was 290 µg/mL, the “H1299 LD50” value (H1299) was 245 µg/mL and the “HeLaS3 LD50” value (HeLaS3) was 185 µg/mL. The “LD50 MCF7” value (MCF7) was 98 µg/mL, the “PC3 LD50” value (PC3) was 140 µg/mL and the “LD50 SW480” value (SW480) was 120 µg/mL. For the same molecule, the HC50 at 1 h (in vitro [8]; pH 7, hemolytic assay, concentration at 50% hemolysis, 1 hour at 37° C., read-out: LD50) was 40 µg/mL, the “MIC Cm-comb.” value (P. aeruginosa H374 [9]) was 16 µg/mL and the “MIC Nal-comb.” value (P. aeruginosa H374 [9]) was 5000 µg/mL. The “FIC Index” value (P. aeruginosa H374 [9]; [13]) was 1.25, the “FIC Index” value (P. aeruginosa H374 [9]; [14]) was 1.25 and the “FIC Index” value (P. aeruginosa H774) was 1.25. For the same molecule, the “MIC Nal-comb.” value (P. aeruginosa) was 624 µg/mL, the “WI38 LD50” value (WI38) was 175 µg/mL and the CC50 at 24 h (in vitro [10]; LD50 WI38, WI38 normal lung fibroblast line, MTT, 24 hours with peptide) was 175 µg/mL.

In the case of FALKALKKLKKALKKAL-NH2 [compound 153], the “Anti-fungal (preferred peptide)” value (fungal) is reported as “X (Preferred antifungal peptides can be selected as having MIC or MBC values of less than or equal to about 25 μg/ml)”, the “MBC E. coli A.25922” value [1] is reported as 10 µg/mL and the “MBC P. aerug A.27853” value [2] is reported as 25 µg/mL. For the same molecule, the “MBC S. aur A.25923” value [3] was 5 µg/mL and the “MFC Candida A.10231” value [4] was 25 µg/mL.

For KYKKALKKLAKLL-NH2 [compound 146], the “Anti-fungal (preferred peptide)” value (fungal) was “X (Preferred antifungal peptides can be selected as having MIC or MBC values of less than or equal to about 25 μg/ml)”, the “MBC E. coli A.25922” value [1] was 10 µg/mL and the “MBC P. aerug A.27853” value [2] was >250 µg/mL. For the same molecule, the “MBC S. aur A.25923” value [3] was 75 µg/mL and the “MFC Candida A.10231” value [4] was 10 µg/mL.

With FAKLLAKALKKL-NH2 [compound 103] the “Anti-fungal (preferred peptide)” value (fungal) was “X (Preferred antifungal peptides can be selected as having MIC or MBC values of less than or equal to about 25 μg/ml)”, the “MBC E. coli A.25922” value [1] was 30 µg/mL and the “MBC P. aerug A.27853” value [2] was 30 µg/mL. For the same molecule, the “MBC S. aur A.25923” value [3] was >50 µg/mL and the “MFC Candida A.10231” value [4] was 25 µg/mL.

In the case of FAKLLAKALKKAL-NH2 [compound 102], the “Anti-fungal (preferred peptide)” value (fungal) is reported as “X (Preferred antifungal peptides can be selected as having MIC or MBC values of less than or equal to about 25 μg/ml)”, the “MBC E. coli A.25922” value [1] is reported as 25 µg/mL and the “MBC P. aerug A.27853” value [2] is reported as 30 µg/mL. The “MBC S. aur A.25923” value [3] was 25 µg/mL and the “MFC Candida A.10231” value [4] was 15 µg/mL.

For FAKLAKKLL-NH2 [P60], the “paerug9027 (MIC)” value [5] was 100 µg/mL, the “staph6538 (MIC)” value [6] was 200 µg/mL and the “yeast (MIC or MFC)” value [11] was 200 µg/mL. It also gave a S. aureus (MRSA) MIC (S. aureus (MRSA)) of 32 µg/mL, a S. epidermidis C621 MIC (S. epidermidis C621) of 4 µg/mL and a S. pyogenes M76 MIC (S. pyogenes M76) of 8 µg/mL. The “S. pyogenes MIC” value (S. pyogenes ATCC19615) was 8, the S. pneumoniae MIC (S. pneumoniae C718) was 128 µg/mL and the “S. pneumoniae MIC” value (S. pneumoniae C719) was >128. The “P. acne MIC” value (P. acne ATCC 6919) was 4, the “LD50 BMKC” value (BMKC) was “> (> indicates greater than 1000)” and the “H1299 LD50” value (H1299) was “> (> indicates greater than 1000)”. For the same molecule, the “HeLaS3 LD50” value (HeLaS3) was “> (> indicates greater than 1000)”, the “LD50 MCF7” value (MCF7) was “> (> indicates greater than 1000)” and the “PC3 LD50” value (PC3) was “> (> indicates greater than 1000)”. For the same molecule, the “LD50 SW480” value (SW480) was “> (> indicates greater than 1000)”, the LD50 [12] was “> (> indicates greater than 1000)” and the “MIC Cm-comb.” value (P. aeruginosa H374 [9]) was 4 µg/mL. The “MIC Nal-comb.” value (P. aeruginosa H374 [9]) was 1250 µg/mL, the “FIC Index” value (P. aeruginosa H374 [9]; [13]) was 0.5 and the “FIC Index” value (P. aeruginosa H374 [9]; [14]) was 0.5. The “FIC Index” value (P. aeruginosa H774) was 1.25, the “MIC Nal-comb.” value (P. aeruginosa) was 624 µg/mL and the “WI38 LD50” value (WI38) was “> (> indicates greater than 1000)”. The “LD50 WI38” value (WI38; WI38 normal lung fibroblast line) was “> (> indicates greater than 1000)”.

With “VALALKALKKLLKKLKKLAKKAL-NH2 [compound 510]” the HC50 at 1 h (in vitro [8]; pH 7, Table 26, valine substitution, read-out: Hemolysis RBC LD50) was 10 µg/mL, the “Anti-fungal (preferred peptide)” value (fungal) was “X (Preferred antifungal peptides can be selected as having MIC or MBC values of less than or equal to about 25 μg/ml)” and the CC50 at 24 h (in vitro [10]; WI-38 LD50, Table 26, valine substitution) was 77 µg/mL.

For CC(C)C[C@H](NC(=O)[C@H](C)NC(=O)[C@H](CCCCN)NC(=O)[C@H](CC(C)C)NC(=O)[C@H](C)NC(=O)[C@H](CC(C)C)NC(=O)[C@H](C)NC(=O)[C@H](CC(C)C)NC(=O)[C@H](CCCCN)NC(=O)[C@H](C)NC(=O)[C@H](CC(C)C)NC(=O)[C@H](CCCCN)NC(=O)[C@H](CCCCN)NC(=O)[C@H](C)NC(=O)[C@H](CC(C)C)NC(=O)[C@H](CCCCN)NC(=O)[C@H](CCCCN)NC(=O)[C@H](CC(C)C)NC(=O)[C@H](CCCCN)NC(=O)[C@H](CCCCN)NC(=O)[C@H](C)NC(=O)[C@H](CC(C)C)NC(=O)[C@H](CCCCN)NC(=O)[C@H](CCCCN)NC(=O)[C@H](C)NC(=O)[C@@H](N)Cc1ccccc1)C(=O)N[C@@H](C)C(=O)N[C@@H](CC(C)C)C(=O)N[C@@H](CCCCN)C(=O)N[C@@H](C)C(=O)O [compound 100], the “Anti-fungal (preferred peptide)” value (fungal) was “X (Preferred antifungal peptides can be selected as having MIC or MBC values of less than or equal to about 25 μg/ml)”.
